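Briefly, cells in 96-well plates were exposed to five compound concentrations for 48 h, and endpoints were estimated by linear interpolation. Abbreviation: GI50, concentration required for 50% inhibition of growth.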 The source made the active and inactive calls. Rule as the data show it: active = GI50 up to about 1.1 µM and inactive = higher. Square brackets hold non-standard residues; d marks the D form. Peptide text beside a SMILES is read from it. pGlu = O=C1CC[C@@H](C(=O)O)N1; Thz = O=C(O)[C@@H]1CSCN1
Key:
Assay in all cases: NCI anticancer screen, dose series, 48 h
[1] = system: A549
[2] = system: BT-549
[3] = system: CAKI-1
[4] = system: DU-145
[5] = system: EKVX
[6] = system: HOP-92
[7] = system: Hs-578T
[8] = system: IGROV-1
[9] = system: MCF7
[10] = system: NCI-H460
[11] = system: OVCAR-4
[12] = system: SK-MEL-28
[13] = system: SNB-19
[14] = system: SW-620
[15] = system: T47D
[16] = system: UACC-62
[17] = system: RXF 393
[18] = system: SK-OV-3

Measured: GI50

CC(C)C1(NC(=O)C2CC3c4cccc5[nH]cc(c45)CC3N(C)C2)OC2(O)C3CCCN3C(=O)C(Cc3ccccc3)N2C1=O (stereo not given)
inactive: [1] 7.21 µM | [2] 55 µM | [3] 26 µM | [4] 51.2 µM | [5] 30.3 µM | [6] 18.6 µM | [7] 27.6 µM | [8] 36.4 µM | [9] 13.6 µM | [10] 19.2 µM | [11] 53.5 µM | [12] 24.9 µM | [13] 57.7 µM | [14] 32.3 µM | [15] 11.9 µM | [16] 65.8 µM

COc1cc(C(=O)OC2CC(C)=CC[C@@]3(C)CC[C@](O)(C(C)C)C23)ccc1O (stereo not given in full)
inactive: [1] 12.9 µM | [3] 16.3 µM | [4] 17.9 µM | [5] 18.9 µM | [6] 16.3 µM | [7] 17.3 µM | [8] 19 µM | [9] 12.4 µM | [10] 16.6 µM | [11] 15.9 µM | [17] 18.4 µM | [12] 30.3 µM | [18] 15.4 µM | [13] 19.2 µM | [14] 28.5 µM | [15] 22.3 µM

CN(C)c1nc2oc(-c3ccccc3)c(-c3ccccc3)c2c2nnnn12
inactive: [1] > 100 µM | [3] > 100 µM | [4] > 100 µM | [5] > 100 µM | [6] > 100 µM | [7] > 100 µM | [8] > 100 µM | [9] > 100 µM | [11] > 100 µM | [17] > 100 µM | [12] > 100 µM | [18] > 100 µM | [13] > 100 µM | [14] > 100 µM | [15] > 100 µM | [16] > 100 µM

O=C(Nc1nnc(-c2c(Cl)c(Cl)c(Cl)c(Cl)c2-c2nc3cc(C(=O)c4ccccc4)ccc3[nH]2)o1)c1ccccc1
inactive: [1] 14.9 µM | [2] 23.5 µM | [3] 32.3 µM | [4] 17.5 µM | [5] 17.9 µM | [6] 15.5 µM | [8] 13.6 µM | [9] 10.9 µM | [11] 21 µM | [17] 12.3 µM | [12] 12.1 µM | [18] 18.9 µM | [13] 15.2 µM | [14] 19.9 µM | [15] 16.4 µM

CO[C@]1(c2ccc([N+](=O)[O-])cc2)Oc2ccccc2C(=O)[C@@]1(Nc1ccc(C=O)cc1)OC
inactive: [1] > 10 µM | [2] > 10 µM | [3] > 10 µM | [4] > 10 µM | [5] > 10 µM | [7] > 10 µM | [8] > 10 µM | [9] > 10 µM | [10] > 10 µM | [11] > 10 µM | [17] > 10 µM | [12] > 10 µM | [18] > 10 µM | [13] > 10 µM | [14] > 10 µM | [15] > 10 µM | [16] > 10 µM

COc1cccc(N2N=C3c4ccccc4-n4c(nc5ccccc54)C3C2N)c1 (stereo not given)
inactive: [1] > 100 µM | [2] > 100 µM | [3] > 100 µM | [4] > 100 µM | [5] > 100 µM | [6] > 100 µM | [7] > 100 µM | [8] > 100 µM | [9] 79.6 µM | [10] > 100 µM | [11] > 100 µM | [12] > 100 µM | [13] > 100 µM | [14] > 100 µM | [15] > 100 µM | [16] > 100 µM

COc1ccc(C2Oc3c(cccc3-c3c(-c4ccc(O)cc4)oc4cc(O)cc(O)c4c3=O)C(=O)C2O)cc1O (stereo not given)
inactive: [1] > 100 µM | [2] > 100 µM | [4] > 100 µM | [5] > 100 µM | [6] > 100 µM | [8] > 100 µM | [9] > 100 µM | [10] > 100 µM | [11] > 100 µM | [12] > 100 µM | [18] > 100 µM | [13] > 100 µM | [14] > 100 µM | [15] > 100 µM | [16] > 100 µM

CSc1c(C(=O)Nc2ccc(Cl)cc2)c(N)n(N)c(=O)c1C#N
inactive: [1] > 100 µM | [2] > 100 µM | [3] 34.2 µM | [4] > 100 µM | [5] > 100 µM | [7] > 100 µM | [9] 75.3 µM | [10] > 100 µM | [11] 68.5 µM | [17] > 100 µM | [12] > 100 µM | [18] > 100 µM | [13] > 100 µM | [14] 95.5 µM | [15] 31.3 µM | [16] 24.5 µM

CCC(CS(=O)(=O)O)[N+](=O)[O-] (stereo not given)
inactive: [1] > 100 µM | [2] > 100 µM | [3] > 100 µM | [4] > 100 µM | [5] > 100 µM | [7] > 100 µM | [8] > 100 µM | [9] > 100 µM | [10] > 100 µM | [11] > 100 µM | [17] > 100 µM | [12] > 100 µM | [18] > 100 µM | [13] > 100 µM | [14] > 100 µM | [15] > 100 µM | [16] > 100 µM

Cc1ccc(C(=O)NC2CCCCC2)cc1/N=N/N(C)C
inactive: [1] > 100 µM | [3] > 100 µM | [5] > 100 µM | [6] > 100 µM | [8] > 100 µM | [10] > 100 µM | [11] > 100 µM | [12] > 100 µM | [13] > 100 µM | [14] > 100 µM | [16] > 100 µM

CC(CCc1ccccc1)NCC(O)n1c(/N=N/N(C)C)nc2c1c(=O)n(C)c(=O)n2C (stereo not given)
inactive: [1] > 100 µM | [2] > 100 µM | [3] 88.7 µM | [5] > 100 µM | [6] > 100 µM | [7] > 100 µM | [8] > 100 µM | [9] > 100 µM | [10] 41.1 µM | [11] > 100 µM | [17] > 100 µM | [12] > 100 µM | [18] > 100 µM | [13] > 100 µM | [14] > 100 µM | [15] > 100 µM | [16] > 100 µM

Cc1c(/C=N/NC(=S)Nc2ccc([N+](=O)[O-])cc2)c(=O)n(-c2ccccc2)n1C
inactive: [2] 15.7 µM | [3] 6.85 µM | [5] 10.1 µM | [6] 11.8 µM | [7] 15.8 µM | [8] 12.5 µM | [9] 20 µM | [11] 14.6 µM | [17] 12.4 µM | [12] > 100 µM | [18] 13.5 µM | [13] 16 µM | [14] 25.6 µM | [16] 17.6 µM

CCC(C)C(=O)OCC(=O)c1ccc(-c2ccccc2)cc1 (stereo not given)
inactive: [1] 44.1 µM | [2] 45.4 µM | [3] 42.7 µM | [4] 52.2 µM | [5] 25.6 µM | [6] > 100 µM | [7] 45.9 µM | [8] > 100 µM | [9] 44.8 µM | [10] > 100 µM | [12] 72.9 µM | [18] > 100 µM | [13] 80.7 µM | [14] 53.6 µM | [15] 22.3 µM | [16] 79.3 µM

CCCCCC[C@H]([C@H](C)O)n1cnc2c(N)ncnc21
inactive: [1] > 100 µM | [3] > 100 µM | [4] > 100 µM | [5] > 100 µM | [6] > 100 µM | [7] > 100 µM | [8] > 100 µM | [9] > 100 µM | [10] > 100 µM | [11] > 100 µM | [17] > 100 µM | [12] 49.3 µM | [18] > 100 µM | [13] > 100 µM | [14] > 100 µM | [15] > 100 µM | [16] > 100 µM

COc1cc(Br)c(CC2C3=C(CCN2C(=O)C2CCC2)CC2(CC3)OCCO2)cc1O (stereo not given)
inactive: [1] 57.9 µM | [3] 68.4 µM | [4] > 100 µM | [5] 34.2 µM | [6] 56.4 µM | [7] 33.8 µM | [8] 58.7 µM | [9] 28.6 µM | [10] 50.2 µM | [11] 34.4 µM | [17] 4.84 µM | [12] 93.5 µM | [18] 68.2 µM | [13] > 100 µM | [14] 80.2 µM | [15] 29.9 µM | [16] 53.8 µM

Nc1nc(O)c2nc(CNc3ccc(C(=O)NC(CCC(=O)O)C(=O)O)cc3)cnc2n1 (stereo not given)
inactive: [1] > 100 µM | [2] > 100 µM | [5] > 100 µM | [7] > 100 µM | [8] > 100 µM | [9] > 100 µM | [10] > 100 µM | [11] > 100 µM | [17] > 100 µM | [12] > 100 µM | [18] > 10 µM | [13] > 100 µM | [14] > 100 µM | [16] > 100 µM

O=C1CC[C@@H](C(=O)N2CSC[C@H]2C(=O)O)N1 [PIDOTIMOD] ([pGlu]-[Thz]-OH)
inactive: [1] > 100 µM | [2] > 100 µM | [3] > 100 µM | [4] > 100 µM | [7] > 100 µM | [8] > 100 µM | [9] > 100 µM | [10] > 100 µM | [17] > 100 µM | [12] > 100 µM | [18] > 100 µM | [13] > 100 µM | [14] > 100 µM | [15] > 100 µM | [16] > 100 µM
